Experimental findings from US20210122746A1, “FEBRIFUGINE DERIVATIVES” (BRISTOL-MYERS SQUIBB COMPANY, priority 2017, published 2021) are described below.

Where a name gives a salt, the structure may show the parent alone.

The test addresses T1, human ProRS (prolyl tRNA synthetase moiety of glutamyl prolyl tRNA synthetase) (Homo sapiens, UniProt P07814).
T1 construct: The prolyl tRNA synthetase moiety (ProRS) in the cDNA of glutamyl prolyl tRNA synthetase was subcloned; 6xHis (N, cleaved yes); made in house; host or cells: E. coli BL21 (DE3)
T1 sequence (P07814 1007-1512 limits assumed): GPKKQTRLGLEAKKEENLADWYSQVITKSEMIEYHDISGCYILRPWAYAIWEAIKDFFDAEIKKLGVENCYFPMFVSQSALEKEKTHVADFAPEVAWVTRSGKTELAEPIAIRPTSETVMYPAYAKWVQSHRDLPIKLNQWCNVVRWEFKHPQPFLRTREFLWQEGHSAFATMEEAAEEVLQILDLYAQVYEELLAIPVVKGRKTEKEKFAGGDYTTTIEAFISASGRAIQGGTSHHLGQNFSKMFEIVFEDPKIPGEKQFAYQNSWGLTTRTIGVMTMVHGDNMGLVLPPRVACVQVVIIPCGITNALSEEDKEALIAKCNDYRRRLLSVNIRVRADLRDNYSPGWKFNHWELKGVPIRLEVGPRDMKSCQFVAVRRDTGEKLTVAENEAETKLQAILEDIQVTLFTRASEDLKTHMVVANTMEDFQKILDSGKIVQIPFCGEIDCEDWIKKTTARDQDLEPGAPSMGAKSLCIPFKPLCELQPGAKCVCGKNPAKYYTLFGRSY
Kind of test: Assay for inhibitors of prolyl tRNA synthetase activity (ProRS assay, labeled proline incorporation). It counts as biochemical. The conditions noted are these: ProRS 20 nM, compounds 10 μM to 0.5 nM, 10 min at 37° C.; read-out: EPR IC50. From the text: In order to establish the activities of the compounds highlighted above, we determined extent of inhibition of prolyl tRNA synthetase activity in dose response curves to obtain IC50 values.
The prolyl tRNA synthetase moiety (ProRS) in the cDNA of glutamyl prolyl tRNA synthetase was subcloned, tagged with a single biotin, purified and used in the assay. Briefly, human ProRS with a 6× N-terminal His tag in pET28N with TVMV BioP was transformed in E. coli BL21 (DE3) cells, selected, overexpressed and purified using a Ni Seph 6 FF XK 16/20 column in the first stage. Ni-NTA eluates were pooled and treated with TVMV protease, and biotinylated using d-Biotin, MgCl2, ATP and the BirA enzyme. This was rerun through a Ni column as before. The eluates were further enriched and purified using membrane ultrafiltration and a SuperDex 200 XK 16/60 column, and peak fractions were confirmed by SDS-PAGE prior to protein amount determination, aliquoting and storage at −80° C.
ProRS assay was performed in 96 well plates in a final reaction volume of 20 μl, using staggered additions of Tris-Cl (pH 7.5, 60 mM), dithiothreitol (2 mM), ATP (5 mM, pH 7.0), MgCl2 6 mM), ProRS (20 nM, with pre-determined active fraction range) and bovine tRNA (20 μg). Controls and compounds, at various concentrations (10 μM to 0.5 nM), were incubated on ice with enzyme mix for 15 min followed by addition of proline (non-labeled and labeled, 3.96 and 1.04 μM (1 μCi) respectively) to initiate the reaction. Reaction was carried out for 10 min at 37° C. and terminated by addition of TCA (10%, 100 μl). Reaction mix was collected on a Whatman GF/B filter using a vacuum filtration manifold. This filter was washed 3 times with 5% TCA followed by 2 washes with ethanol, air dried, and read using a liquid scintillation counter (TopCount NXT) using MicroScint O. IC50 values were calculated and analyzed using ToolSet (4-parameter plot) and depicted herein.
Usually IC50 stands for the point on the concentration scale where inhibition reaches its midpoint. Turning to `Cc1cc(Cl)cc2c(=O)n(CC(=O)CC3CCCCN3)cnc12` (centres unmarked) [Example 3, 6-Chloro-8-methyl-3-[2-oxo-3-(piperidin-2-yl)propyl]quinazolin-4(3H)-one hydrochloride], the 50% inhibitory concentration (IC50) is 71 nM. In the case of `Cc1cc(Cl)cc2c(=O)n(CC(=O)CC3CCCCN3)cnc12` (centres unmarked) [Example 4, 6-Chloro-8-methyl-3-[2-oxo-3-(piperidin-2-yl)propyl]quinazolin-4(3H)-one hydrochloride], the concentration for half-maximal inhibition (IC50) turned out to be 807 nM. Take `O=C(C[C@H]1NCCC[C@@H]1O)Cn1cnc2ccc(-c3cccc(Cl)c3)nc2c1=O` [Example 5, 6-(3-chlorophenyl)-3-{3-[(2R,3S)-3-hydroxypiperidin-2-yl]-2-oxopropyl}pyrido[3,2-d]pyrimidin-4(3H)-one dihydrochloride]: the IC50 stood at 10 nM.

`O=C(C[C@H]1NCCC[C@@H]1O)Cn1cnc2ccc(-c3cccc(C(F)(F)F)c3)nc2c1=O` [Example 6, 3-{3-[(2R,3S)-3-Hydroxypiperidin-2-yl]-2-oxopropyl}-6-[3-(trifluoromethyl)phenyl]pyrido[3,2-d]pyrimidin-4(3H)-one dihydrochloride]: the IC50 came to 23 nM. Regarding `O=C(C[C@H]1NCCC[C@@H]1O)Cn1cnc2ccc(-c3cccc(F)c3)nc2c1=O` [Example 7, 6-(3-Fluorophenyl)-3-{3-[(2R,3S)-3-hydroxypiperidin-2-yl]-2-oxopropyl}pyrido[3,2-d]pyrimidin-4(3H)-one dihydrochloride], the 50% inhibitory concentration (IC50) turned out to be 5 nM. `O=C(C[C@H]1NCCC[C@@H]1O)Cn1cnc2ccncc2c1=O` [Example 8, 3-{3-[(2R,3S)-3-hydroxypiperidin-2-yl]-2-oxopropyl}pyrido[4,3-d]pyrimidin-4(3H)-one dihydrochloride]: the half-maximal inhibitory concentration (IC50) stood at 14 nM. As for `O=C(C[C@H]1NCCC[C@@H]1O)Cn1cnc2ccc(-c3ccc(F)c(F)c3)nc2c1=O` [Example 9, 6-(3,4-difluorophenyl)-3-{3-[(2R,3S)-3-hydroxypiperidin-2-yl]-2-oxopropyl}pyrido[3,2-d]pyrimidin-4(3H)-one dihydrochloride], the IC50 worked out at 8 nM. For `O=C(C[C@H]1NCCC[C@@H]1O)Cn1cnc2ccc(-c3cccnc3)nc2c1=O` [Example 11, 3-{3-[(2R,3S)-3-hydroxypiperidin-2-yl]-2-oxopropyl}-6-(pyridin-3-yl)pyrido[3,2-d]pyrimidin-4(3H)-one trihydrochloride], the half-inhibitory concentration (IC50) worked out at 9 nM. For the molecule `Cc1cc(C2CC2)nc2c(=O)n(CC(=O)C[C@H]3NCCC[C@@H]3O)cnc12` [Example 12, 6-cyclopropyl-3-(3-((2R,3S)-3-hydroxypiperidin-2-yl)-2-oxopropyl)-8-methylpyrido[3,2-d]pyrimidin-4(3H)-one dihydrochloride], the IC50 is 13 nM. As for `Cc1cc(C(F)(F)F)nc2c(=O)n(CC(=O)C[C@H]3NCCC[C@@H]3O)cnc12` [Example 13, 3-{3-[(2R,3S)-3-hydroxypiperidin-2-yl]-2-oxopropyl}-8-methyl-6-(trifluoromethyl)pyrido[3,2-d]pyrimidin-4(3H)-one dihydrochloride], the half-maximal inhibitory concentration (IC50) came out at 17 nM. With `Cc1cc(-c2cccc(F)c2)nc2c(=O)n(CC(=O)C[C@H]3NCCC[C@@H]3O)cnc12` [Example 14, 6-(3-fluorophenyl)-3{3-[(2R,3S)-3-hydroxypiperidin-2-yl]-2-oxopropyl}-8-methylpyrido[3,2-d]pyrimidin-4(3H)-one dihydrochloride], the IC50 amounted to 7 nM. As to `Cc1cc(-c2cccc(C(F)(F)F)c2)nc2c(=O)n(CC(=O)C[C@H]3NCCC[C@@H]3O)cnc12` [Example 15, 3-{3-[(2R,3S)-3-hydroxypiperidin-2-yl]-2-oxopropyl}-8-methyl-6-(3-(trifluoromethyl)phenyl)pyrido[3,2-d]pyrimidin-4(3H)-one bis(2,2,2-trifluoroacetic acid)], the IC50 was found to be 8 nM.

Turning to `Cc1cc(-c2cccc(Cl)c2)nc2c(=O)n(CC(=O)C[C@H]3NCCC[C@@H]3O)cnc12` [Example 16, 6-(3-chlorophenyl)-3-{3-[(2R,3S)-3-hydroxypiperidin-2-yl]-2-oxopropyl}-8-methylpyrido[3,2-d]pyrimidin-4(3H)-one bis(2,2,2-trifluoroacetate)], the IC50 was 3 nM.

`Cc1cc(-c2cccnc2)nc2c(=O)n(CC(=O)C[C@H]3NCCC[C@@H]3O)cnc12` [Example 17, 3-{3-[(2R,3S)-3-hydroxypiperidin-2-yl]-2-oxopropyl}-8-methyl-6-(pyridin-3-yl)pyrido[3,2-d]pyrimidin-4(3H)-one trihydrochloride]: the IC50 worked out at 12 nM. Take `Cc1cc(C(C)C)cc2c(=O)n(CC(=O)C[C@@H]3CCCCN3)cnc12` [Example 18, (S)-6-isopropyl-8-methyl-3-{2-oxo-3-[piperidin-2-yl]propyl}quinazolin-4(3H)-one hydrochloride]: the IC50 was 140 nM. In the case of `Cc1cc(C(F)(F)F)cc2c(=O)n(CC(=O)C[C@@H]3CCCCN3)cnc12` [Example 19, (S)-8-methyl-3-{2-oxo-3-[piperidin-2-yl]propyl}-6-(trifluoromethyl)quinazolin-4(3H)-one 2,2,2-trifluoroacetate], the IC50 was 159 nM. Next, `O=C(C[C@@H]1CCCCN1)Cn1cnc2ccncc2c1=O` [Example 20, (S)-3-{2-oxo-3-[piperidin-2-yl-propyl-pyrido(4,3-d)]}pyrimidin-4(3H)-one-dihydrochloride]: 60 nM; `Cc1cc(C)c2ncn(C[C@@H](O)C[C@H]3NCCC[C@@H]3O)c(=O)c2n1` [Example 21, 3-{(S)-2-hydroxy-3-[(2R,3S)-3-hydroxypiperidin-2-yl]propyl}-6,8-dimethylpyrido[3,2-d]pyrimidin-4(3H)-one dihydrochloride]: 491 nM; `O=c1c2nc(-c3cccc(Cl)c3)ccc2ncn1C[C@@H](O)C[C@H]1NCCC[C@@H]1O` [Example 22, 6-(3-Chlorophenyl)-3-{(S)-2-hydroxy-3-[(2R,3S)-3-hydroxypiperidin-2-yl]propyl}pyrido[3,2-d]pyrimidin-4(3H)-one dihydrochloride]: 20 nM. Then `O=c1c2nc(-c3cccc(F)c3)ccc2ncn1C[C@@H](O)CC1NCCC[C@@H]1O` (stereo partly drawn) [Example 24, 6-(3-Fluorophenyl)-3-{(2S)-2-hydroxy-3-[(3S)-3-hydroxypiperidin-2-yl]propyl}pyrido[3,2-d]pyrimidin-4(3H)-one dihydrochloride], with 8 nM. On to `O=c1c2nc(-c3ccc(F)c(F)c3)ccc2ncn1C[C@@H](O)C[C@H]1NCCC[C@@H]1O` [Example 25, 6-(3,4-Difluorophenyl)-3-{(S)-2-hydroxy-3-[(2R,3S)-3-hydroxypiperidin-2-yl]propyl}pyrido[3,2-d]pyrimidin-4(3H)-one dihydrochloride], for which the IC50 came to 25 nM. With `O=c1c2cnccc2ncn1C[C@@H](O)C[C@H]1NCCC[C@@H]1O` [Example 26, 3-{(S)-2-Hydroxy-3-[(2R,3S)-3-hydroxypiperidin-2-yl]propyl}pyrido[4,3-d]pyrimidin-4(3H)-one dihydrochloride], the IC50 was 80 nM. On to `Cc1cc(-c2ccc(F)c(F)c2)nc2c(=O)n(C[C@@H](O)C[C@H]3NCCC[C@@H]3O)cnc12` [Example 27, 6-(3,4-difluorophenyl)-3-((S)-2-hydroxy-3-((2R,3S)-3-hydroxypiperidin-2-yl)propyl)-8-methylpyrido[3,2-d]pyrimidin-4(3H)-one dihydrochloride], for which the IC50 came out at 172 nM.
